# Test results published in patent EP4273147A1, “SUBSTITUTED SPIROLACTAMS, SALTS THEREOF AND THEIR USE AS HERBICIDALLY ACTIVE SUBSTANCES” (Bayer Aktiengesellschaft, priority 2022, dated 2023).
# Legend:
# ECHCG [1] = test: Herbicidal pre-emergence action, section C (Table C6); format: in vivo, Echinochloa crus-galli; settings: application rate 320 g/ha; visual grading after ca. 3 weeks
# VIOTR = test: Herbicidal pre-emergence action, section C (Table C12); format: in vivo, Viola tricolor; settings: application rate 320 g/ha; visual grading after ca. 3 weeks
# SETVI [2] = test: Herbicidal pre-emergence action (Table A5); format: in vivo, Setaria viridis; settings: visual grading after ca. 3 weeks
# Description: (§1) Seeds of mono- and dicotyledonous weed plants were sown in plastic pots (double sowings with one species of mono- and one species of dicotyledonous weed plants per pot), in sandy loam, and covered with soil.
# STEME = test: Herbicidal pre-emergence action (Table A6); format: in vivo, Stellaria media; settings: application rate 1280 g/ha; visual grading after ca. 3 weeks
# Description: as §1
# POAAN [3] = test: Herbicidal pre-emergence action (Table A7); format: in vivo, Poa annua; settings: visual grading after ca. 3 weeks
# Description: as §1
# VERPE [4] = test: Herbicidal post-emergence action (Table B10); format: in vivo, Veronica persica
# Description: (§2) Seeds of mono- and dicotyledonous weed plants were placed in plastic pots in sandy loam soil (doubly sown with in each case one species of mono- or dicotyledonous weed plants per pot), covered with soil and cultivated in a greenhouse under controlled growth conditions. 2 to 3 weeks after sowing, the test plants were treated at the one-leaf stage. […] After the test plants had been kept in the greenhouse under optimum growth conditions for about 3 weeks, the activity of the preparations was rated visually in comparison to untreated controls. For example, 100% activity = the plants have died, 0% activity = like control plants.
# ECHCG [5] = test: Herbicidal pre-emergence action (Table A2); format: in vivo, Echinochloa crus-galli; settings: visual grading after ca. 3 weeks
# Description: as §1
# VERPE [6] = test: Herbicidal pre-emergence action (Table A11); format: in vivo, Veronica persica; settings: application rate 1280 g/ha; visual grading after ca. 3 weeks
# Description: as §1
# ALOMY = test: Herbicidal pre-emergence action (Table A9); format: in vivo, Alopecurus myosuroides; settings: application rate 1280 g/ha; visual grading after ca. 3 weeks
# Description: as §1
# DIGSA = test: Herbicidal pre-emergence action (Table A12); format: in vivo, Digitaria sanguinalis; settings: application rate 1280 g/ha; visual grading after ca. 3 weeks
# Description: as §1
# LOLRI = test: Herbicidal pre-emergence action (Table A3); format: in vivo, Lolium rigidum; settings: visual grading after ca. 3 weeks
# Description: as §1
# ECHCG [7] = test: Herbicidal post-emergence action (Table B3); format: in vivo, Echinochloa crus-galli; settings: application rate 1280 g/ha; rated visually after about 3 weeks
# Description: as §2
# POAAN [8] = test: Herbicidal post-emergence action (Table B7); format: in vivo, Poa annua; settings: application rate 1280 g/ha
# Description: as §2
# SETVI [9] = test: Herbicidal post-emergence action (Table B8); format: in vivo, Setaria viridis; settings: application rate 1280 g/ha
# Description: as §2
Structure (SMILES),pre-emergence activity against STEME (STEME),pre-emergence activity against POAAN (POAAN [3]; application rate 1280 g/ha),post-emergence activity against VERPE (VERPE [4]; application rate 1280 g/ha),pre-emergence activity against ECHCG (ECHCG [5]; application rate 320 g/ha),pre-emergence activity against SETVI (SETVI [2]; application rate 320 g/ha),pre-emergence activity against POAAN (POAAN [3]; application rate 320 g/ha),pre-emergence activity against VERPE (VERPE [6]),pre-emergence activity against DIGSA (DIGSA),further results
"O=C1N(Cc2cc(F)c(F)cc2F)CCCC12CCCN(Cc1cc(F)c(F)cc1F)C2=O (single isomer, unassigned; (-)) [I-214, (-)-2,8-bis(2,4,5-trifluorophenylmethyl)-2,8-diazaspiro[5.5]undecane-1,7-dione]",,,,,,,,,pre-emergence activity against ECHCG (ECHCG [1]): 100%; pre-emergence activity against VIOTR (VIOTR): 80%
CC(c1ccccc1F)N1CCCC2(CCCN(C(C)c3ccccc3F)C2=O)C1=O (centres unmarked) [I-115],100%,90%,90%,,,,,,pre-emergence activity against SETVI (SETVI [2]; application rate 1280 g/ha): 100%
O=C1N(Cc2ccccc2Cl)CCCC12CCCN(Cc1ccccc1Cl)C2=O (racemic) [I-054],,,90%,100%,100%,100%,90%,,
COc1cccc(F)c1CN1CCCC2(CCCN(Cc3c(F)cccc3OC)C2=O)C1=O (racemic) [I-033],100%,,,,,100%,90%,100%,pre-emergence activity against ALOMY (ALOMY): 90%
Cc1ccccc1CN1CCCC2(CCCN(Cc3c(F)cccc3F)C2=O)C1=O (racemic) [I-051],,90%,,100%,100%,,90%,,pre-emergence activity against LOLRI (LOLRI; application rate 320 g/ha): 100%; pre-emergence activity against ALOMY (ALOMY): 90%; post-emergence activity against ECHCG (ECHCG [7]): 90%; post-emergence activity against POAAN (POAAN [8]): 90%; post-emergence activity against SETVI (SETVI [9]): 90%
O=C1N(Cc2ccccc2C(F)(F)F)CCCC12CCCN(Cc1ccccc1C(F)(F)F)C2=O (racemic) [I-091],,100%,,,,,,100%,pre-emergence activity against ECHCG (ECHCG [5]; application rate 1280 g/ha): 100%; post-emergence activity against VERPE (VERPE [4]; application rate 320 g/ha): 90%
"O=C1N(Cc2ccccc2F)CCCC12CCCN(Cc1ccccc1F)C2=O (single isomer, unassigned) [I-056]",90%,,90%,,,100%,,100%,pre-emergence activity against ECHCG (ECHCG [5]; application rate 1280 g/ha): 100%; pre-emergence activity against LOLRI (LOLRI; application rate 1280 g/ha): 100%; pre-emergence activity against SETVI (SETVI [2]; application rate 1280 g/ha): 100%
Cc1ccccc1CN1CCCC2(CCCN(Cc3ccccc3)C2=O)C1=O (racemic) [I-092],,,,100%,90%,,,,pre-emergence activity against LOLRI (LOLRI; application rate 1280 g/ha): 100%; post-emergence activity against POAAN (POAAN [8]): 90%; post-emergence activity against VERPE (VERPE [4]; application rate 320 g/ha): 90%
